Measured values taken from PMC11995211, “Design, Synthesis, and Evaluation of a New Fluorescent Ligand for the M2 Muscarinic Acetylcholine Receptor” (ACS Medicinal Chemistry Letters, 2025).

Legend:
hM3R = target: T1, hM3R (Homo sapiens, UniProt P20309); assay: Radioligand competition binding, [3H]-scopolamine (N-methyl), CHO cell membranes, hM3R; settings: mean ± SD, n = 3; membranes from CHO cells transfected with hM3R; read-out: Receptor Ki M3
T1 construct: expressed in transfected cells; host or cells: CHO cell membranes
T1 sequence (P20309 whole entry): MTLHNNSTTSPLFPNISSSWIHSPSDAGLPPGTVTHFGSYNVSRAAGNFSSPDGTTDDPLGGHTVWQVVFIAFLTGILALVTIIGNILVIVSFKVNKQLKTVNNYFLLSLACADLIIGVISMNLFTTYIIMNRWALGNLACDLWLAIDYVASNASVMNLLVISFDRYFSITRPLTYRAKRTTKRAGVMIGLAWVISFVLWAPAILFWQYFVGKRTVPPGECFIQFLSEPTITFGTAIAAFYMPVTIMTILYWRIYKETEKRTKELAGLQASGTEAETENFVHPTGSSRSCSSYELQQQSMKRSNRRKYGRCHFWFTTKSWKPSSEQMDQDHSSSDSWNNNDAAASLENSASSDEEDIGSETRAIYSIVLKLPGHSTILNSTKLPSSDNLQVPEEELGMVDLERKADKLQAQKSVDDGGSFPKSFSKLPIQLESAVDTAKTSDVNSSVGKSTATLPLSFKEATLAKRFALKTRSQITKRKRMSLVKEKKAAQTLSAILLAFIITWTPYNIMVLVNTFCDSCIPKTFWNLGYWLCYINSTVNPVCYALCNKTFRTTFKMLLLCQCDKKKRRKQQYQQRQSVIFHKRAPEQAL

HA–M2R = target: T2, HA–M2R (Homo sapiens, UniProt P08172); assay: STED nanoscopy labeling of living HEK 293T cells; type: cell-based; settings: 300 nM
T2 sequence (P08172 1-466): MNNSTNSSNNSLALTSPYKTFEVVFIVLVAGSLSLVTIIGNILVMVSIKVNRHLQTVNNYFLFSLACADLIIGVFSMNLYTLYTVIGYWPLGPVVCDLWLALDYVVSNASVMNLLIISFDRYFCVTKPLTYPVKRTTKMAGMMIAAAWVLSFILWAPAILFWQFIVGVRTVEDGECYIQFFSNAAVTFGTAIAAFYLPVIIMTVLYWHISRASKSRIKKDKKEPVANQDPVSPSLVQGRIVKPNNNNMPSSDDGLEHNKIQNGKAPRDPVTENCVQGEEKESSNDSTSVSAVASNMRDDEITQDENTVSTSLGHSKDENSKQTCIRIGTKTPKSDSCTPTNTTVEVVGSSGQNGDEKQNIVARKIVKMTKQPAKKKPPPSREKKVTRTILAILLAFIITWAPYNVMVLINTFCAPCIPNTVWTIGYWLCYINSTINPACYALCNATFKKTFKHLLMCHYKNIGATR
Source text: As STED microscopy is used for the deeper investigation of cellular processes even at the subcellular level, we challenged the fluorescent probe 33 in STED nanoscopy (Figure ). For STED, we used the same transfected cells as in the case of two-photon microscopy. Using the STED function and the available largest magnification objective, we observed improvement of optical resolution.
Figure S7. […] Scale bar:
20 μm. Representative images of two independent experiments are shown.
Figure S8. […] Scale bar:
50 μm. Representative images of two independent experiments are shown.
Confocal and STED microscopy
Confocal and STED images were acquired using a Leica TCS SP8 STED 3× inverse […]
well IBIDI chamber slides. The samples were scanned with a Leica HC PL Fluotar 20x/0.55 objective and a PMT detector. A 488 nm laser was used for the excitation of the fluorescent dye OG488 for the confocal imaging, and the spectral detection parameters were 500-550 nm.
(1 picture or pasted object on this page, not shown here)
Simultaneous transmission light imaging was used to detect the cells. For STED imaging, we used the same excitation laser and a Leica HC PL APO 100×/1.40 oil immersion objective and a Leica HyD detector, which was completed with a 660 nm STED (1.5 W, continuous wave) laser for depletion (at 1.17–2.48 × 109 W mm−2 nominal intensity with an output laser power of 1.2 W/32 nm × 32 nm pixel size). […]

hM1R = target: T3, hM1R (Homo sapiens, UniProt P11229); assay: Radioligand competition binding, [3H]-scopolamine (N-methyl), CHO cell membranes, hM1R; settings: 10 μM compound; radioligand binding; read-out: inhibition at 10 μM (M1)
T3 construct: expressed in transfected cells; host or cells: CHO cell membranes
T3 sequence (P11229 1-460): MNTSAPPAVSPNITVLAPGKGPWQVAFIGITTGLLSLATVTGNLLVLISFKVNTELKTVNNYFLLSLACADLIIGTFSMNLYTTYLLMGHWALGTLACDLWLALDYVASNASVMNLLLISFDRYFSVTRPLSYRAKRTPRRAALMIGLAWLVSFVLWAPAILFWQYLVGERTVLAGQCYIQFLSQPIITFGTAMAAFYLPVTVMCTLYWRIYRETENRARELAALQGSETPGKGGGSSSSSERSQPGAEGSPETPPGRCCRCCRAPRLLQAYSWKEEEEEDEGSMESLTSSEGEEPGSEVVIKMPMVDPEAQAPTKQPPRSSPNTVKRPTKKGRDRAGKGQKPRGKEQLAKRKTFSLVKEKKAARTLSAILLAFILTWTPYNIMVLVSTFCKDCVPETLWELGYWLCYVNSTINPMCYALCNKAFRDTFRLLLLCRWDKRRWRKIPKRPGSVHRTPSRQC

[1] = Photophysical measurements and photostability; type: physicochemical
Method: Next, we investigated the photophysical properties of the fluorescent probe 33. In acetonitrile, the probe has an absorption maximum at 520 nm and a fluorescence maximum at 547 nm with a Stokes shift of 27 nm. […] The dye was pH sensitive, with intensity increasing at higher pH. Following a literature procedure, we examined the effect of protein (BSA) on the ligand. […]
Photophysical Measurements
Absorbance measurements were performed using a Jasco V-750 Spectrophotometer standard cell quartz cuvette with 1 cm light path length, 1 nm bandwidth, 400 nm/min recording speed) operating at 21 °C. The fluorescence measurements were carried out on a Jasco FP8300 spectrofluorometer in a standard cell quartz cuvette (1 cm light path length). Both the excitation and emission slit widths were both set to 2.5 nm, and the scanning speed was 400 nm/min. Pure solvents were used for blank correction. Absorbance spectra and excitation spectra were recorded in the range of […]. For the emission spectra, we excited the sample at the excitation maximum, and measured it from excitation maximum plus 10 nm to 800 nm.
Quantum yields were calculated by recording the fluorescence spectra of a series of different concentrations. The gradient of the integrated fluorescence intensities plotted against absorbance at the excitation wavelength was used for the calculation of the quantum yields:
The compound 33 was excited at 360 nm, OG488-NHS was used as reference (Φwater = […]
Solvent screening measurements were conducted using 5 μM solutions of the fluorescent probe 33 in various solvents, including acetonitrile, 1,4 -dioxane, water, toluene, dichloromethane, tetrahydrofuran, ethanol, PBS buffer (pH=5; 7; 7.4, 9), PBS buffer (pH=7.4) with 1% BSA, and ethyl acetate. Photostability measurements were performed with 5 μM solution of in PBS buffer (pH=7). The samples were exposed to a 4 W light-emitting diode emitting at 450 nm, and emission spectra were recorded.

Ki (hM3R): 55.6 ± 3.25 µM | signal location in HA–M2R-expressing cells (HA–M2R; living HEK 293T): concentrated in the membranes of cells | fluorescence in control (M2R-negative) cells (HA–M2R; non-transfected HEK 293T): fluorescence is lacking | inhibition at 10 µM (hM1R): 38% | photostability: irradiation time to half of the original fluorescence intensity ([1]; PBS (pH 7), 5 μM, 4 W, 450 nm light): 10 min | Stokes shift ([1]; in acetonitrile): 27 nm | absorption maximum ([1]; in acetonitrile): 520 nm | brightness ([1]; in acetonitrile): 8501 | fluorescence maximum ([1]; in acetonitrile): 547 nm | molar extinction coefficient (ε) ([1]; in acetonitrile): 42504.9 M^–1 cm^–1 | fluorescence quantum yield (Φf) ([1]; in acetonitrile, OG488-NHS as reference): 0.20
Compound: O=C(CCOCCOCCNC(=O)c1ccc(-c2c3cc(F)c(=O)cc-3oc3cc(O)c(F)cc23)c(C(=O)O)c1)NCCOCCOCCNc1ccccc1C(=O)N1CCC(N2CCC(Cc3ccc(S(=O)(=O)c4cccc(Cl)c4)cc3)CC2)CC1 [Compound 33]
